Assay results from patent publication US11099176B2 (priority 2015, dated 2021).
Like-named read-outs stand apart in the source and are kept apart here.

Tests used:
Assay type in all cases: binding
[1] = biological target: Marinobacter sp. msLacBP6 variant W11C, Acrylodan conjugate; test: Fluorescence titration of conjugate; settings: λ1 473, λ2 520 nm
[2] = biological target: T1, Thermanaerovibrio acidaminovorans taLacBP14 variant W186C, SEQ ID NO: 48, Badan conjugate (Thermanaerovibrio acidaminovorans, UniProt D1B6P5, C271A/C333A/W212C); set-up: key: nb: no binding; settings: λ1 515, λ2 491 nm
T1 construct: Badan on Cys186
T1 sequence (D1B6P5 entry or part of it W212C/C271A/C333A): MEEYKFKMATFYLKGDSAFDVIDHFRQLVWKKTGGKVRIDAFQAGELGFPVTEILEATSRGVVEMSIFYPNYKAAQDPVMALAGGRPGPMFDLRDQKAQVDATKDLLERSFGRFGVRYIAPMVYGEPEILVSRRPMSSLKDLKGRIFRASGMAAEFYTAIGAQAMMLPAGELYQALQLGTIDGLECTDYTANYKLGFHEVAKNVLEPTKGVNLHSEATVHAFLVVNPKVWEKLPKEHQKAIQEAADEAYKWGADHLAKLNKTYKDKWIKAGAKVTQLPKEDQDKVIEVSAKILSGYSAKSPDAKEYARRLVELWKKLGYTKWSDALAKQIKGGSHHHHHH
Description: 12-, 24-, or 48-point logarithmic titration series were prepared on a Tecan Freedom liquid-handling robot, using an in-house program, ‘TitrationPlate’, that compiles an abstract description of a multi-component titration series into machine instructions for operating the robot. Temperature-dependent fluorescence emission intensities of 20 μL aliquots, each containing 10 μM protein, were measured in 384-well microtiter plates in a LightCycler 480 II (Roche) using excitation and emission wavelengths available for this instrument that most closely matched the optical characteristics of the fluorescent conjugate. Temperatures were advanced in 1K steps. At each temperature, data was collected at 1-second intervals for 60 seconds at which point the signal had relaxed to a steady value associated with the new temperature. […] The in-house program ‘TitrationMeltPlate’ was used to convert these observations into time-independent datasets that record fluorescence as a function of temperature for each well and associate wells with their concentration of titrant and additive. Management tools were developed to maintain a database of titrations and their analyses.
Ligand- and wavelength-dependent emission intensities were recorded on a Nanodrop3300 (Thermo Scientific) at room temperature. Using the LED closest to the optimal excitation wavelength of the fluorophore (UV, 365 nm; blue, 470 nm; ‘white’, 460-550 nm).
Monochromatic emission intensities Iλ (these intensities correspond to a bandpass intensity, recorded either with a physical filter in the case of the Roche LightCycler, or by integrating in the interval λ−δ, λ+δ in the case of an emission spectrum), were fit to Iλ=^apoβλ(1−ytrue)+^satβλytrue 1 where ^apoβλ and ^satβλ are the fluorescence baselines associated with the ligand-free and ligand-bound states of the protein, respectively, and ytrue the fractional saturation of the protein (Layton and Hellinga, 2010, Biochemistry, 49, 10831-41). Baseline functions can be constant, linear, or a second-order polynomial.

[3] = biological target: Marinobacter sp. msLacBP6 variant V188C, SEQ ID NO: 39, Badan conjugate; test: Fluorescence titration of conjugate; settings: read-out: trueKd (lactate); monochromatic, 513 nm

With `C[C@H](O)C(=O)O` [lactate] the Kd ([1]; read-out: appKd (lactate)) was 400 µM, the Kd ([1]; read-out: trueKd (lactate)) was 400 µM and the “appKd (lactate)” value [2] was “nb”. The “trueKd (lactate)” value [2] was “nb” and the Kd [3] was 400 µM.
